Results taken from PubChem BioAssay AID2060602 (Molecular Pharmacology Branch, DTP, NCI, 2025).

Tested on: 648629-189-R-J1-PDC complex spheroids viability
Assay: Anticancer human tumor 648629-189-R-J1-PDC patient-derived bladder carcinoma cell line growth inhibition [CLK]
Conditions: for IC50: curve of first compound; for viability, T/C: stronger effect = lower value
Text: A high-throughput screen of multi-cell type tumor spheroids was designed to identify active combinations of […] and targeted small molecules. Complex spheroids include a stromal component modeled by human endothelial cells (HUVEC) and fibroblasts modeled by human mesenchymal stem cells (MSCs). The concentration ranges selected for each drug and investigational agent were based upon clinically achievable concentrations if the clinical Cmax of the agent was known.
Compounds. The drugs and investigational agents: cirtuvivint (SM08502; NSC835563), CC-671 (NSC850746), vemurafenib (NSC761431), tapotoclax (NSC804041), sotorasib (NSC818433), adagrasib (NSC831453), MRTX-1133 (NSC836407), BAY2416964 (NSC825713), copanlisib (NSC816437), inavolisib (NSC800729), abemaciclib (NSC768073), osimertinib (NSC779217), entinostat (NSC756642), eltanexor (KPT-8602, NSC794443), venetoclax (NSC766270), ceralasertib (NSC777638), bortezomib (NSC756655), olaparib (NSC753686), talazoparib (NSC767125), alisertib (NSC759677), peposertib (NSC802822), gemcitabine (NSC613327), 5-fluorouracil (NSC19893), SN-38 (NSC673596), oxaliplatin (NSC266046), paclitaxel (NSC125973), and doxorubicin (NSC123127), were obtained from the National Cancer Institute (NCI) Developmental Therapeutics Program Chemical Repository. The FDA-approved anticancer drug set is available from the Developmental Therapeutics Program at https://dtp.cancer.gov/organization/dscb/obtaining/available plates.htm. […] The stock solutions were prepared in dimethyl sulfoxide (DMSO, Sigma-Aldrich, St. Louis, MO, cat. D2650), except for the platinum complexes which were prepared in saline (Quality Biological, Gaithersburg, MD, cat. 114-055-101), at 800-fold the tested concentration and stored at -70 degrees C prior to their use. All drugs and investigational agents were tested over a range starting from a high concentration at or near the clinical Cmax and decreasing in half-log increments. If the clinical Cmax for an agent had not been determined, the highest concentration tested was 10 microM.
Cell Culture. All cells were maintained in an incubator at 37 degrees C and 5% CO2 with 95% humidity. The PDC lines were cultured according to standard operating procedures established by the NCI PDMR. Briefly, all PDCs were thawed and cultured in Matrigel-coated flasks prepared with a working solution of 1X Ham's F-12 nutrient mix, without supplementation (Invitrogen, Waltham, MA, cat. 11765054), 100 U/mL penicillin-streptomycin (Invitrogen, cat. 15140122), and 2.5% Matrigel (Corning Inc., Corning, NY, cat. 354248) for the first three passages. The 947758-054-R-J2-PDC line was cultured in 6B/Colon 1A media, which includes advanced DMEM/F-12 (Thermo Fisher Scientific, cat. 12634028), 10 mM HEPES (Thermo Fisher Scientific, cat. 15630080), 1X GlutaMAX supplement (Thermo Fisher Scientific, cat. 35050061), 0.1 mg/mL primocin (InvivoGen, cat. ant-pm-2), 10% defined fetal bovine serum, heat inactivated (HyClone Laboratories Inc., cat. SH30070.03HI), 1.25 mM N-Acetyl-L-cysteine (Sigma-Aldrich, cat. A9165), 10 mM nicotinamide (Sigma-Aldrich, cat. N0636), 1X B-27 supplement (Thermo Fisher Scientific, cat. 17504044), 1X N-2 supplement (Thermo Fisher Scientific, cat. 17502048), and 10 microM Y-27632 dihydrochloride (Tocris Bioscience, cat. 1254). The 876862-298-R-J1-PDC was cultured in 6E media, which includes all 6B/Colon 1A media components plus 50% L-WRN conditioned media (ATCC, cat. CRL-3276), 50 ng/mL recombinant human EGF recombinant protein (hEGF; Thermo Fisher Scientific, cat. PHG0311), 10 ng/mL recombinant human fibroblast growth factor 10 (hGFG-10; PeproTech, cat. 100-26), 1 ng/mL recombinant human fibroblast growth factor 2 (hFGF-2; PeproTech, cat. 100-18B), and 1 µM prostaglandin E2 (PGE2; Tocris, cat. 2296). The 227483-062-R1-J1-PDC line was cultured in Panc media, containing all 6E components except hFGF-2, with the addition of 500 nM SB-431542 (Selleckchem, cat. S1067) and 10 nM gastrin (Tocris, cat. 3006). […]
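Throughout, for viability, T/C: drug exposure lasted seven days before viability readout; 100% = DMSO vehicle control wells.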

SMILES: C=CC(=O)Nc1cc(Nc2nccc(-c3cn(C)c4ccccc34)n2)c(OC)cc1N(C)CCN(C)C + CN1CCN(c2cc(C(=O)Nc3cc4cc(-c5cnn(C)c5)ccc4cn3)ccn2)CC1
- IC50 (second compound 0.0316 µM): > 300 nM
- IC50 (second compound 0.1 µM): > 300 nM
- IC50 (second compound 0.316 µM): < 0.949 nM
- IC50 (second compound 1 µM): < 0.949 nM
- IC50 (second compound 3.16 µM): < 0.949 nM
- IC50 (second compound 10 µM): < 0.949 nM
- viability, T/C (second compound 0.0316 µM, first compound 0.000949 µM): 104%
- viability, T/C (second compound 0.0316 µM, first compound 0.003 µM): 109%
- viability, T/C (second compound 0.0316 µM, first compound 0.00949 µM): 112%
- viability, T/C (second compound 0.0316 µM, first compound 0.03 µM): 115%
- viability, T/C (second compound 0.0316 µM, first compound 0.0949 µM): 110%
- viability, T/C (second compound 0.0316 µM, first compound 0.3 µM): 91.6%
- viability, T/C (second compound 0.1 µM, first compound 0.000949 µM): 104%
- viability, T/C (second compound 0.1 µM, first compound 0.003 µM): 117%
- viability, T/C (second compound 0.1 µM, first compound 0.00949 µM): 103%
- viability, T/C (second compound 0.1 µM, first compound 0.03 µM): 103%
- viability, T/C (second compound 0.1 µM, first compound 0.0949 µM): 99.1%
- viability, T/C (second compound 0.1 µM, first compound 0.3 µM): 93%
- viability, T/C (second compound 0.316 µM, first compound 0.000949 µM): 31.4%
- viability, T/C (second compound 0.316 µM, first compound 0.003 µM): 42.5%
- viability, T/C (second compound 0.316 µM, first compound 0.00949 µM): 40.7%
- viability, T/C (second compound 0.316 µM, first compound 0.03 µM): 35.6%
- viability, T/C (second compound 0.316 µM, first compound 0.0949 µM): 33.8%
- viability, T/C (second compound 0.316 µM, first compound 0.3 µM): 23.6%
- viability, T/C (second compound 1 µM, first compound 0.000949 µM): 0.28%
- viability, T/C (second compound 1 µM, first compound 0.003 µM): 0.35%
- viability, T/C (second compound 1 µM, first compound 0.00949 µM): 1.06%
- viability, T/C (second compound 1 µM, first compound 0.03 µM): 0.49%
- viability, T/C (second compound 1 µM, first compound 0.0949 µM): 0.24%
- viability, T/C (second compound 1 µM, first compound 0.3 µM): 0.19%
- viability, T/C (second compound 3.16 µM, first compound 0.000949 µM): 0.13%
- viability, T/C (second compound 3.16 µM, first compound 0.003 µM): 0.19%
- viability, T/C (second compound 3.16 µM, first compound 0.00949 µM): 0.15%
- viability, T/C (second compound 3.16 µM, first compound 0.03 µM): 0.14%
- viability, T/C (second compound 3.16 µM, first compound 0.0949 µM): 0.82%
- viability, T/C (second compound 3.16 µM, first compound 0.3 µM): 0.77%
- viability, T/C (second compound 10 µM, first compound 0.000949 µM): 0.24%
- viability, T/C (second compound 10 µM, first compound 0.003 µM): 2.1%
- viability, T/C (second compound 10 µM, first compound 0.00949 µM): 0.19%
- viability, T/C (second compound 10 µM, first compound 0.03 µM): 0.23%
- viability, T/C (second compound 10 µM, first compound 0.0949 µM): 0.24%
- viability, T/C (second compound 10 µM, first compound 0.3 µM): 0.21%
